Reference: patent US20120330012A1, “Novel Tricyclic Compounds” (ABBOTT LABORATORIES, priority 2011, published 2012)

Columns and labels:
Syk = biological target: T1, Syk (Homo sapiens, UniProt P43405); test: In vitro Syk kinase activity measured by trFRET; assay type: biochemical; settings: Syk catalytic domain aa356-635, 0.001 mM ATP
T1 construct: Syk catalytic domain (aa356-635, purified in-house at the Abbott Bioresearch Center); His tag (C); made in house; host or cells: SF9 insect cells
Method: In Vitro Syk Kinase Activity Measured by Time-Resolved Fluorescence Resonance Energy Transfer (trFRET)
0.3 nM Syk catalytic domain (aa356-635, purified in-house at the Abbott Bioresearch Center) was mixed with 0.1 μM peptide substrate (biotin-TYR1, Sequence: Biotin-(Ahx)-[…]-COOH) at varying concentrations of inhibitor in reaction buffer: 50 mM MOPSO pH 6.5, 10 mM MgCl2, 2 mM MnCl2, 2.5 mM DTT, 0.01% BSA, 0.1 mM Na3VO4 and 0.001 mM ATP. After about 60 min incubation at rt, the reaction was quenched by addition of EDTA (final concentration: 100 mM) and developed by addition of revelation reagents (final approximate concentrations: 30 mM HEPES pH 7.0, 0.06% BSA, 0.006% Tween-20, 0.24 M KF, 90 ng/mL PT66K (europium labeled anti-phosphotyrosine antibody cat #61T66KLB Cisbio, Bedford, Mass.) and 0.6 μg/mL SAXL (Phycolink streptavidin-allophycocyanin acceptor, cat #PJ52S, Prozyme, San Leandro, Calif.). The developed reaction was incubated in the dark either at about 4° C. for about 14 h or for about 60 min at rt, then read via a time-resolved fluorescence detector (Rubystar, BMG) using a 337 nm laser for excitation and emission wavelength of 665 nm. Within the linear range of the assay, the observed signal at 665 nm is directly related to phosphorylated product and used to calculate the IC50 values.

Jak3 = biological target: T2, Jak3 (Homo sapiens, UniProt P52333); test: In vitro Jak3 kinase activity measured by trFRET; assay type: biochemical; settings: Jak3 enzyme aa 811-1103, 0.001 mM ATP
T2 construct: Jak3 enzyme (aa 811-1103); expressed in SF9 cells as a GST fusion; GST; made in house; host or cells: SF9 insect cells
Source text: In Vitro Jak3 Kinase Activity Measured by Time-Resolved Fluorescence Resonance Energy Transfer (trFRET)

T2 sequence (P52333 811-1103): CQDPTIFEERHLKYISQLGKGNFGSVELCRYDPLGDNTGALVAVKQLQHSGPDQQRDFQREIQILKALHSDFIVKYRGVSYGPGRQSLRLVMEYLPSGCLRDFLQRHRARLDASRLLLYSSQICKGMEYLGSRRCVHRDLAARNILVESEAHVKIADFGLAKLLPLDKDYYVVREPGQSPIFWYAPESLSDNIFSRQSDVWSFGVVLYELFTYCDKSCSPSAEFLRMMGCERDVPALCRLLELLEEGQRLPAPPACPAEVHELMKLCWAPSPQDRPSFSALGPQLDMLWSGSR

Row | Structure (SMILES) | IC50 (Syk) | IC50 (Jak3)
1 | c1cc(-c2cc3c(ncn4ccnc34)[nH]2)ccn1 [Example #12, 8-(Pyridin-4-yl)-7H-imidazo[1,2-c]pyrrolo[3,2-e]pyrimidine] | 1 to 10 µM | –
2 | N#CC1(C(=O)N2CCCC(c3nnn4cnc5[nH]ccc5c34)C2)CC1 (racemic) [Examples #5 and #6, Step E, 1-(3-(7H-Pyrrolo[3,2-e][1,2,3]triazolo[1,5-c]pyrimidin-1-yl)piperidine-1-carbonyl)cyclopropanecarbonitrile] | – | 1 to 10 µM
3 | CC(C)c1nc(C2CCCN(C(=O)OCc3ccccc3)C2)c2c3cc[nH]c3ncn12 (stereo not shown) [Example #3, Benzyl 3-(3-isopropyl-7H-imidazo[1,5-c]pyrrolo[3,2-e]pyrimidin-1-yl)piperidine-1-carboxylate] | – | 1 to 10 µM
4 | N#CC1(C(=O)N2CCC[C@@H](c3nnn4cnc5[nH]ccc5c34)C2)CC1 (single isomer, unassigned) [compound 6] | – | 0.1 to 1 µM
5 | N#CC1(C(=O)N2CCC[C@H](c3nnn4cnc5[nH]ccc5c34)C2)CC1 (single isomer, unassigned) [compound 5] | – | 1 to 10 µM
6 | CC(=O)N1CCCC(c2nc(-c3ccc(C(C)C)cc3)n3cnc4[nH]ccc4c23)C1 (stereo not shown) [Example #13, 1-(3-(3-(4-Isopropylphenyl)-7H-imidazo[1,5-c]pyrrolo[3,2-e]pyrimidin-1-yl)piperidin-1-yl)ethanone] | 1 to 10 µM | –
7 | O=C(OCc1ccccc1)N1CCCC(c2ncn3cnc4[nH]ccc4c23)C1 (stereo not shown) [Example #4, Benzyl 3-(7H-imidazo[1,5-c]pyrrolo[3,2-e]pyrimidin-1-yl)piperidine-1-carboxylate] | – | 1 to 10 µM

Second part, the compound after the results:

Row | IC50 (Syk) | IC50 (Jak3) | Structure (SMILES)
8 | > 10 µM | – | Brc1cnc2c3cc[nH]c3ncn12 [Example #10, Step D, 3-bromo-7H-imidazo[1,2-c]pyrrolo[3,2-e]pyrimidine]
9 | > 10 µM | – | CCCNC(=O)c1ccc(Nc2nc3[nH]ccc3c3nccn23)cc1 [Example #7, 4-(7H-Imidazo[1,2-c]pyrrolo[3,2-e]pyrimidin-5-ylamino)-N-propylbenzamide]
10 | > 10 µM | – | COc1ccc(-c2nnc3c4cc[nH]c4ncn23)cc1 [Example #8, 3-(4-Methoxyphenyl)-7H-pyrrolo[3,2-e][1,2,4]triazolo[4,3-c]pyrimidine]
11 | > 10 µM | 1 to 10 µM | c1cc2c(ncn3nnc(C4CCCCC4)c23)[nH]1 [Example #2, 1-Cyclohexyl-7H-pyrrolo[3,2-e][1,2,3]triazolo[1,5-c]pyrimidine]
12 | > 10 µM | – | CS(=O)(=O)c1ccc(-c2nnc3c4cc[nH]c4ncn23)cc1 [Example #9, 3-(4-(Methylsulfonyl)phenyl)-7H-pyrrolo[3,2-e][1,2,4]triazolo[4,3-c]pyrimidine]
13 | 0.1 to 1 µM | – | CC(C)(O)c1ccc(-c2cnc3c4cc[nH]c4ncn23)cc1 [Example #10, 2-(4-(7H-Imidazo[1,2-c]pyrrolo[3,2-e]pyrimidin-3-yl)phenyl)propan-2-ol]
14 | 1 to 10 µM | – | c1cncc(-c2cn3cnc4[nH]ccc4c3n2)c1 [Example #11, 2-(Pyridin-3-yl)-7H-imidazo[1,2-c]pyrrolo[3,2-e]pyrimidine]
15 | 1 to 10 µM | – | c1cc2c(ncn3cnc(C4CCCCC4)c23)[nH]1 [Example #1, 1-Cyclohexyl-7H-imidazo[1,5-c]pyrrolo[3,2-e]pyrimidine]
